According to US6943191B1, “Disubstituted lavendustin A analogs and pharmaceutical composition comprising the analogs” (The United States of America as represented by the …, priority 1998, dated 2005):
Like-named read-outs stand apart in the source and are kept apart here.

How the values were obtained:
K562 cells = test: K562 cell culture and growth assay, 6 day MTT; assay type: cell-based, human; conditions: K562, 6 days, 4 or more experiments
Protocol: This example describes the procedure used for cell culture and growth assays. Human leukemia, Philadelphia-chromosome-positive CML cell line K562 was obtained from ATCC (Rockville, Md.). Cells were cultured in RPMI medium containing 10% fetal calf serum, 2 mM glutamine, 100 units/ml of penicillin and 100 μg/ml streptomycin Cells (2×10^3 cells/well) were incubated with increasing concentrations of compounds of the present invention dissolved in DMSO in a final volume of 200 μl in 96-well plates. Control cells were incubated with medium containing identical concentrations of the DMSO solvent. Growth of K562 cells was quantitated after 6 days by ability of living cells to reduce the yellow dye 3-(4,5-dimethylthiazolyl)-2,5-diphenyltetrazolium bromide (MTT) to a blue formazan product. Further information concerning this procedure is provided by Mossman T., “Rapid Colorimetric Assay for Cellular Growth and Survival—Application to Proliferation and Cytotoxicity Assays,” J. Immunol. Methods 1983, 65:55-63, which is incorporated herein by reference.

p210^bcr-abl = target: T1, p210^bcr-abl (Homo sapiens, UniProt P00519); test: Inhibition of in vitro auto-phosphorylation of p210^bcr-abl, immune-complex kinase assay; assay type: biochemical; conditions: immune complex kinase assay, 3 experiments, read-out: Enzyme Assays IC50 (μM) p210bcl-abl in vitro phosphorylation
T1 construct: immune complexes containing ^32P-labeled p210^bcr-abl were collected on protein Sepharose beads; BCR (N-terminal part of the breakpoint cluster region protein, natural fusion partner); endogenous in cells; host or cells: K562 cells (lysate, immunoprecipitated on Protein A-Sepharose); the other entry of the earlier key: BCR (P11274, Breakpoint cluster region protein)
Protocol: Inhibition of in vitro auto-phosphorylation of p210^bcr-abl in immune-complex kinase assays were conducted as follows. K562 cell line cells were washed twice in […]. The washed cells were lysed in PLC lysis buffer 150 mM HEPES (pH 7.5), 150 mM NaCl, 10% (v/v) glycerol, 1% (v/v) Triton X-100, 1.5 mM MgCl2, 1 mM EGTA. 10 μg/ml leupeptin, 10 μg/ml aprotinin, 1 mM sodium orthovanadate. 10 mM sodium pyrophosphate, 100 mM sodium fluoride and 1 mM phenylmethyl sulfonyl fluoride| Cell lysates were centrifuged at 100,000 g for 15 minutes and the supernatant collected. Protein concentrations of the clarified supernatants were determined by the Bradford Protein Assay, and the same quantity of protein was immunoprecipitated from control (vehicle-treated) and drug-treated cells. Cell lysates were incubated and gently rocked at 4° C. for 4 hours overnight with antibodies. Immune complexes were collected by incubation with Protein A-Sepharose beads (Pharmacia, Piscataway N.J.) and immune complexes (beads) were washed three times with HNTG buffer [20 mM HEPES (pH 7.5), 10% glycerol, 0.1% Triton X-100, 150 mM NaCl and 1 mM sodium orthovanadate] to remove unbound material. Bound proteins were boiled for 5 minutes in 2×SDS sample buffer (63 mM Tris-HCl, ph 6.8; 10% glycerol; 2% SDS; 0.0025% bromophenol blue: and […] 2 mercaptoethanol) prior to SDS-PAGE. Proteins were resolved on 4-20% gradient mini gels from Novex Experimental Technology (San Diego, Calif.).
After SDS-PAGE, proteins were electrophoretically transferred onto Immobilon polyvinylidene difluoride (PVDF) membranes (Millipore, Bedford, Mass.) at 250 mA for 4 hours at 4° C. using 2× Tris glycine transfer buffer (50 mM Tris, glycine), 20% methanol and 0.1% SDS. Residual binding sites on the membrane were blocked by incubation in TTS (20 mM Tris pH 7.4, 0.9% NaCl and 0.05% Tween 20) containing 3% BSA overnight at 4° C. or for 4 hours at room temperature. Blots were incubated for 1-1.5 hours with TTS containing 0.3% BSA with 1 μg/ml of mouse anti-P-Tyr, 2 μg/ml of mouse anti-Grb2 or 1 μg/ml of rabbit anti-She antibody. Blots were washed three times for 6 minutes each with TTS containing 0.3% BSA and probed with a 1:1000 dilution of rabbit anti-mouse antibody or directly with [^125I]Protein A (Amersham, Arlington Heights, Ill.) in blocking solutions. Proteins were visualized by autoradiography (exposed for 1-2 days at −70° C.).
The p210^bcr-abl, protein immunoprecipitates were washed twice with HTNG buffer Immunoprecipitates were washed once with 50 mM Tris (pH 7.0) and distributed to each reaction in 20 μl of 20 mM PIPES [piperazine-N,N′-bis(ethanesulfonic acid)] (pH 7.0)−20 mM MnCl2. Then, 10 μl of compounds made according to the present invention at desired concentrations from working stock solution prepared in 20 mM PIPEs (pH 7.0)−20 mM MnCl2 were added to each reaction tube. Reactions were initiated with the addition of 10 μl of [γ-^33P]ATP (10 μCi per sample, 3000 Ci/mmol; Amersham), incubated for 20 minutes at 30° C., stopped by addition of 10 μl of 5×SDS sample buffer, heated at 100° C. for 5 minutes, and analyzed on 4-20% SDS-PAGE and by autoradiography.
To assess the effect of drugs added in vitro on the state of p210^bcr-abl in the immune complexes, K562 cells were labeled with ^32P, lysed in PLC buffer and immune complexes containing ^32P-labeled p210^bcr-abl were collected on protein Sepharose beads and beads were washed four times with HNTG buffer. Immune complexes were divided into several tubes in 30 μl of PLC buffer in the presence of compounds made as described herein.

[1] = system: panel of approximately 60 different human tumor cell lines; test: National Cancer Institute drug screen, mean-graph parameters; assay type: cell-based; conditions: mean over cell line panel, two days exposure; for GI50: Homo sapiens, 48 h
Protocol: Compounds of the present invention also have been subjected to the drug screening procedure employed by the National Cancer Institute for the screening of drugs having possible anticancer utility. The screening procedure uses a diverse, disease-oriented panel consisting of approximately 60 different human tumor cell lines organized into disease-specific subpanels. The compounds of the present invention were tested over a range of concentrations for cytotoxic or growth-inhibitory effects against cell lines comprising the panel. The eight subpanels represented diverse histologies (leukemias, melanomas, and tumors of the lung, colon, kidney, breast, ovary, and brain).
Compounds of the present invention were tested over a period of two days. During this period the cells were continuously exposed to various concentrations of the compounds tested. The tests produced individual dose-responses, one for each cell line (i.e. one for each example), and the data were represented in dose-response curves. The data provided by these dose response curves were summarized using a mean-graph format.
To produce data for the mean-graph format, a compound concentration that produced a target level response was calculated for each cell line. Three different response parameters were evaluated. The first response parameter was the growth inhibition (“GI50”). GI50 is the concentration of compounds made according to the present invention that produced an apparent 50% decrease in the number of tumor cells relative to the appropriate control (not exposed to the compounds of the present invention) at the end of the incubation period.
The second response parameter was the total growth inhibition (“TGI”). TGI is the concentration at which the number of tumor cells remaining at the end of the incubation period substantially equal the number of tumor cells existing at the start of the incubation period.
The third response parameter was the lethal concentration (“LC50”) LC50 is the concentration of compounds made according to the present invention that caused an apparent 50 percent reduction in the number of tumor cells […] at the start of the incubation period.
In a typical GI50 mean graph, the relative position of the vertical reference line along the horizontal concentration axis was obtained by averaging the negative log10GI50 values for all the cell lines tested against the compound. Horizontal bars were then plotted for the individual negative log10GI50 values of each cell line relative to the vertical reference line. The GI50 graph thus provided a characteristic fingerprint for the compound, displaying the individual cell lines that are proportionately more sensitive than average (bars extending to the right of the reference line) or proportionately less sensitive than average (bars extending to the left of the reference line). The length of a bar was proportional to the difference between the log10GI50 value obtained with the particular cell line and the mean (represented by the vertical reference line).
Similar mean graphs were prepared for the TGI and LC50 response parameters.

[2] = Homo sapiens, 144 h, Table 8, mean+S.E., read-out: IC50 (μM) 6 dMTT
[3] = Homo sapiens, 144 h, Table 9, mean ± S.E., read-out: IC50 (μM) 6dMTT
[4] = Table 9, read-out: Tumor cell Mean log GI50 (converted)

T1 sequence (P00519 with tags, fused parts or gaps): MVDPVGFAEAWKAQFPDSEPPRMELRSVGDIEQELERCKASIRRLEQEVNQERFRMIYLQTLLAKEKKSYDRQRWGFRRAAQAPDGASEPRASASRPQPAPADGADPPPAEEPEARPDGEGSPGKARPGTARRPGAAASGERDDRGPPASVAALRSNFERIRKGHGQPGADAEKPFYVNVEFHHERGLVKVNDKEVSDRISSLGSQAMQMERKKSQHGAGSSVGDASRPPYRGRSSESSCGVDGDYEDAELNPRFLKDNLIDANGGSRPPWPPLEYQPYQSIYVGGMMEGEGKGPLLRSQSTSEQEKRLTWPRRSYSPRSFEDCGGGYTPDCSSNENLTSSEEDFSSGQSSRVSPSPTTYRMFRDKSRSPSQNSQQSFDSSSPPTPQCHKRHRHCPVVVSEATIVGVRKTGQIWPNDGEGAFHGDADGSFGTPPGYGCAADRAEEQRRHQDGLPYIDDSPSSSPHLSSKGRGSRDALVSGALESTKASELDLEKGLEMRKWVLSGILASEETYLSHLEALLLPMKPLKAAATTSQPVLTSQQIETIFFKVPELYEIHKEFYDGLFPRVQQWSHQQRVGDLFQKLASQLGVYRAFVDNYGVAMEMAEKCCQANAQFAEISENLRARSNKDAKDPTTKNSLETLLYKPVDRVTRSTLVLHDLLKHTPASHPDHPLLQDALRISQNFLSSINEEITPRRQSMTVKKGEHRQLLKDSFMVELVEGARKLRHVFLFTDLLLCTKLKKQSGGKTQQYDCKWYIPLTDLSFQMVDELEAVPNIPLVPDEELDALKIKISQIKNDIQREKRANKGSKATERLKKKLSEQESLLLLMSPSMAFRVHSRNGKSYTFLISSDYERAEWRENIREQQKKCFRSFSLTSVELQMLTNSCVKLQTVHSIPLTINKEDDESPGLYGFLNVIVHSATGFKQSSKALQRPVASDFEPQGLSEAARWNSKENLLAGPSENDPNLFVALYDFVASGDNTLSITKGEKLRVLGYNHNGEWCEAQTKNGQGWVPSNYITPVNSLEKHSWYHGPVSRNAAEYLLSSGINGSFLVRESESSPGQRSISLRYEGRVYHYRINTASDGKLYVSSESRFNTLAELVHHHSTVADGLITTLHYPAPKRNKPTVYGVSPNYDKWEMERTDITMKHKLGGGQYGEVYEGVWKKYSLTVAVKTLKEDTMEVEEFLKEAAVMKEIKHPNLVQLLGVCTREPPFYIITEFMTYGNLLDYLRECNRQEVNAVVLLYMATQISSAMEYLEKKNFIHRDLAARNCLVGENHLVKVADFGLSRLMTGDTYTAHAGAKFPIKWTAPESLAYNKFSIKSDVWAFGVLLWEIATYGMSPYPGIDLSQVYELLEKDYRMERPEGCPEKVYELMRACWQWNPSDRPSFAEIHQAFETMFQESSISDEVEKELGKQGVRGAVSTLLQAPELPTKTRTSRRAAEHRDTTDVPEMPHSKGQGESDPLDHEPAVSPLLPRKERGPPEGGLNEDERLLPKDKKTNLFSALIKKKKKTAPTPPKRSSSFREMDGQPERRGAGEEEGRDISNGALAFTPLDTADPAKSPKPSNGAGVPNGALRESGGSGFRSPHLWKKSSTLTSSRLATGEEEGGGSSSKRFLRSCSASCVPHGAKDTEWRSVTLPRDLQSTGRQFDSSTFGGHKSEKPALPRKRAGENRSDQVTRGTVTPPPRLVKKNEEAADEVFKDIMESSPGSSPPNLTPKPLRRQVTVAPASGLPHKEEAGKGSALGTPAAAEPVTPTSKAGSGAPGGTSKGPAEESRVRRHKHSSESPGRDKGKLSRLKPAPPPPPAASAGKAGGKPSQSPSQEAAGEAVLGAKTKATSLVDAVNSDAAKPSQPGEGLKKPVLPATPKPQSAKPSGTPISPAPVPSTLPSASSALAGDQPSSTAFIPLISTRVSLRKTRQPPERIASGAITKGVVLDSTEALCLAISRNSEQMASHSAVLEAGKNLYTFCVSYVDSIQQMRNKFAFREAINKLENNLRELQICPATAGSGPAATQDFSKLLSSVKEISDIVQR

O=C(O)c1ccc(NCc2cc(O)ccc2O)cc1 [COOH / H / H]
IC50 (K562 cells; [2]): 41.9 µM
IC50 (p210^bcr-abl; Table 8, mean+S.E.): 18.5 µM
Tumor Cell Mean log GI50 ([1]; Table 8): −4.96
Tumor Cell Mean log TGI ([1]; Table 8): −4.60

CC(C)OC(=O)c1ccc(CCc2cc(O)c(Br)cc2O)cc1
IC50 (K562 cells; Homo sapiens, 144 h, Table 10, mean ± S.E., read-out: IC50 (μM) 6dMTT): 20 ± 0.7 µM
IC50 (p210^bcr-abl; Table 10, mean ± S.E.): 5.77 ± 0.53 µM
GI50 ([1]; Table 10, read-out: Tumor Cell Mean log GI50 (converted)): 7.59 µM
Tumor Cell Mean log TGI ([1]; Table 10): −4.50

O=C(O)c1cc(N(Cc2ccccc2O)Cc2cc(O)ccc2O)ccc1O [Lavendustin A, 5-[(2,5-dihydroxy-benzyl)-(2-hydroxy-benzyl)-amino]-2-hydroxy-benzoic acid]
IC50 (K562 cells; [2]): 44.7 µM
IC50 (p210^bcr-abl; Table 8, mean+S.E.): 41.1 µM
Tumor Cell Mean log GI50 ([1]; Table 8): −4.06
Tumor Cell Mean log TGI ([1]; Table 8): −4.00

NC(=O)c1ccc(NCC2=CC(=O)C=CC2=O)cc1 [CONH2 / H / 2,5-quinoyl]
IC50 (K562 cells; Table 9, mean ± S.E., read-out: IC50 (μM) 6dMTT): 21.7 ± 2.27 µM
IC50 (p210^bcr-abl; Table 9, mean ± S.E.): 5.1 ± 0.3 µM
Tumor Cell Mean log GI50 ([1]; Table 9): −4.59
Tumor Cell Mean log TGI ([1]; Table 9): −4.31

CC(C)(C)OC(=O)c1ccc(NCC2=C(Br)C(=O)C=CC2=O)cc1 [Compound 24, 4′-t-butylbenzoate-1′-N-2-bromo-p-quinone-3-methyl amine]
IC50 (K562 cells; [3]): 64.8 ± 1.22 µM
IC50 (p210^bcr-abl; Table 9, mean ± S.E.): 2.68 ± 1.33 µM
GI50 [1, 4]: 17.8 µM
Tumor Cell Mean log TGI ([1]; Table 9): −4.31

COC(=O)c1ccc(NCc2cc(O)ccc2O)cc1 [COOCH3 / H / H, reference compound]
IC50 (K562 cells; Table 8, mean+S.E., read-out: IC50 (μM) 6 dMTT): 16.6 µM
IC50 (p210^bcr-abl; Table 8, mean+S.E.): 2.9 µM
Tumor Cell Mean log GI50 ([1]; Table 8): −4.95
Tumor Cell Mean log TGI ([1]; Table 8): −4.52

O=C1C=CC(=O)C(CNc2ccc(C(=O)OC34CC5CC(CC(C5)C3)C4)cc2)=C1Br [Compound 23, 4′-adamantylbenzoate-1′-N-2-bromo-p-quinone-3-methyl amine]
IC50 (K562 cells; [3]): 24.8 ± 3.1 µM
IC50 (p210^bcr-abl; Table 9, mean ± S.E.): 2.38 ± 0.45 µM
GI50 [1, 4]: 7.59 µM
Tumor Cell Mean log TGI ([1]; Table 9): −4.60
